Test results: publication PMC7026418, “The kinase polypharmacology landscape of clinical PARP inhibitors” (Scientific Reports, 2020)
Where two headings read alike, the source gives them in different places.

Experiments:
Assay in all cases: biochemical
Set-up in all cases: DiscoveRx KINOMEscan active site-directed competition binding; percent of control kinase bound to immobilised ligand
AKT3 = AKT3 (Homo sapiens, UniProt Q9Y243)
CAMK2A = CAMK2A (Homo sapiens, UniProt Q9UQM7)
SNRK = biological target: T1, SNRK (Homo sapiens, UniProt Q9NRH2)
T1 sequence (Q9NRH2 1-765): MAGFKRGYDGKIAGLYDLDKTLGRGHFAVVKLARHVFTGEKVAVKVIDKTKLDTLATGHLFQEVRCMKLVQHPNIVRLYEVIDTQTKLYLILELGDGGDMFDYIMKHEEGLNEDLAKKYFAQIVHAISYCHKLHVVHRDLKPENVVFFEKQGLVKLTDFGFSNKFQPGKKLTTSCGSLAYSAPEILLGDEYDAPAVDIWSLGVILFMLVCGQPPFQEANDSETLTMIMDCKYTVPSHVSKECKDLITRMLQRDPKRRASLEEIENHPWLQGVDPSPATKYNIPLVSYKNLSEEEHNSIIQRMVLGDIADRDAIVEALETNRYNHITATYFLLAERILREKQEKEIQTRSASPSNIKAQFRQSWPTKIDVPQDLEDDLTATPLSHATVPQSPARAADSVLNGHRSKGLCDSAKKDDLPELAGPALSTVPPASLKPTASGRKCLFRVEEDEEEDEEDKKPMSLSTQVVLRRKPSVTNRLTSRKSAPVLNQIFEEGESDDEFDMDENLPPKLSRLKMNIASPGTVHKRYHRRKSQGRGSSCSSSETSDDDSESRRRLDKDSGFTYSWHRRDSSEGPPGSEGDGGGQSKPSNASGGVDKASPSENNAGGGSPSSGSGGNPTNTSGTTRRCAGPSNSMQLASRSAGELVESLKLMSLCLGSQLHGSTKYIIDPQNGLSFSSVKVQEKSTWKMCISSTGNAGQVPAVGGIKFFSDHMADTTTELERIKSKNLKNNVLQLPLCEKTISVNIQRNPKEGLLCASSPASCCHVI

[1] = biological target: T2, ABL1(H396P)-phosphorylated (Homo sapiens, UniProt P00519, H396P)
T2 construct: phosphorylated

PLK2 = PLK2 (Homo sapiens, UniProt Q9NYY3)
[2] = biological target: T3, RSK4(Kin.Dom.2-C-terminal) (Homo sapiens, UniProt Q9UK32)
T3 construct: gene RPS6KA6; Kin.Dom.2-C-terminal

CDK2 = CDK2 (Homo sapiens, UniProt P24941)
TAOK3 = biological target: T4, TAOK3 (Homo sapiens, UniProt Q9H2K8)
T4 sequence (Q9H2K8 1-898): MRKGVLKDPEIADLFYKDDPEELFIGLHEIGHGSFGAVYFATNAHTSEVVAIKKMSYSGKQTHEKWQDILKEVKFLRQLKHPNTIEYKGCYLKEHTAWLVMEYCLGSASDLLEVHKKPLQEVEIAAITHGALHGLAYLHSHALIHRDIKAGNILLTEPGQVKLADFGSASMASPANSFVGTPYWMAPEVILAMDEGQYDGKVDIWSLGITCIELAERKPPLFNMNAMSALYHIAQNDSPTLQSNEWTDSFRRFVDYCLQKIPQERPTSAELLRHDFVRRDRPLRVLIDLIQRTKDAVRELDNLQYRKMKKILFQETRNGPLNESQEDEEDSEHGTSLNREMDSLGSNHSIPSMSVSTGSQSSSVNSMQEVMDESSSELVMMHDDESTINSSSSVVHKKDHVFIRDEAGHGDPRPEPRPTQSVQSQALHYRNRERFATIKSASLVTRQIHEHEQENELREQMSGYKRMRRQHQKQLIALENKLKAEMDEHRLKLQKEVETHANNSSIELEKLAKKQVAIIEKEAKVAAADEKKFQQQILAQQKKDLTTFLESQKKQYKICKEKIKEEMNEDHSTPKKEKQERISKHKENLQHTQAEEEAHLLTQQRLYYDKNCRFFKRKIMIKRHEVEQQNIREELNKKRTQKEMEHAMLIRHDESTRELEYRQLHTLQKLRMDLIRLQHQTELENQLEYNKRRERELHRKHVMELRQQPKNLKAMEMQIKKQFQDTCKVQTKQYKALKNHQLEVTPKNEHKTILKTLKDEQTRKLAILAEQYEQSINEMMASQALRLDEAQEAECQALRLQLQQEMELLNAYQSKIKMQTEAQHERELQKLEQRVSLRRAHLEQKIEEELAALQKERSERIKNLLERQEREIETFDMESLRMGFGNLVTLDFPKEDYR

MKK7 = biological target: T5, MKK7 (Homo sapiens, UniProt O14733)
T5 construct: gene MAP2K7
T5 sequence (O14733 1-419): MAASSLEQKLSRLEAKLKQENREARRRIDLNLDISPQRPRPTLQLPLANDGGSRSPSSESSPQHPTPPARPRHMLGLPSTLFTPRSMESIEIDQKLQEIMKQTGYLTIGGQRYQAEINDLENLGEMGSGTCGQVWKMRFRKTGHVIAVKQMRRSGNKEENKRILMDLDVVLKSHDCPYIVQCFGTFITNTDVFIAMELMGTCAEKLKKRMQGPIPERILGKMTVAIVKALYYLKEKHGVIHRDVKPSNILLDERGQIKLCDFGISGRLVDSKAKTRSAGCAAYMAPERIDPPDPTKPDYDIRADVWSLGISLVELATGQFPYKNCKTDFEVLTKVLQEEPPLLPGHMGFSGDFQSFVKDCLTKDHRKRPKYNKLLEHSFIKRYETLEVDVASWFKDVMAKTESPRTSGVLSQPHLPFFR

[3] = read-out: Talazoparib (BMN 673) / %Ctrl @ 10000nM
[4] = read-out: Olaparib / %Ctrl @ 10000nM
[5] = read-out: Rucaparib / %Ctrl @ 10000nM, binding competition, % of control
[6] = read-out: Niraparib (MK-4827) / %Ctrl @ 10000nM

Chain of AKT3 (Q9Y243 whole entry): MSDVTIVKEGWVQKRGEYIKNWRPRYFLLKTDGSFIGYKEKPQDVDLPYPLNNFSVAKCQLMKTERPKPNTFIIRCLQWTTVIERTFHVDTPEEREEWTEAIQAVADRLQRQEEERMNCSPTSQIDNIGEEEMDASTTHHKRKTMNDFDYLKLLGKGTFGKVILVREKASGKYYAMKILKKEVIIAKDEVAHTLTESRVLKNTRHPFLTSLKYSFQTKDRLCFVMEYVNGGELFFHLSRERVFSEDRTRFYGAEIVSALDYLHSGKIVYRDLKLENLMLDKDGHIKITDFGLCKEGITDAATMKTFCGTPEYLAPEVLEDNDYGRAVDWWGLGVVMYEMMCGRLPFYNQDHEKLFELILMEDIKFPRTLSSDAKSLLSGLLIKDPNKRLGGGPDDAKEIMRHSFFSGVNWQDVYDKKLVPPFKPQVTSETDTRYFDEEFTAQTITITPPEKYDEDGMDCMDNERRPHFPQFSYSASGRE
Chain of PLK2 (Q9NYY3 whole entry): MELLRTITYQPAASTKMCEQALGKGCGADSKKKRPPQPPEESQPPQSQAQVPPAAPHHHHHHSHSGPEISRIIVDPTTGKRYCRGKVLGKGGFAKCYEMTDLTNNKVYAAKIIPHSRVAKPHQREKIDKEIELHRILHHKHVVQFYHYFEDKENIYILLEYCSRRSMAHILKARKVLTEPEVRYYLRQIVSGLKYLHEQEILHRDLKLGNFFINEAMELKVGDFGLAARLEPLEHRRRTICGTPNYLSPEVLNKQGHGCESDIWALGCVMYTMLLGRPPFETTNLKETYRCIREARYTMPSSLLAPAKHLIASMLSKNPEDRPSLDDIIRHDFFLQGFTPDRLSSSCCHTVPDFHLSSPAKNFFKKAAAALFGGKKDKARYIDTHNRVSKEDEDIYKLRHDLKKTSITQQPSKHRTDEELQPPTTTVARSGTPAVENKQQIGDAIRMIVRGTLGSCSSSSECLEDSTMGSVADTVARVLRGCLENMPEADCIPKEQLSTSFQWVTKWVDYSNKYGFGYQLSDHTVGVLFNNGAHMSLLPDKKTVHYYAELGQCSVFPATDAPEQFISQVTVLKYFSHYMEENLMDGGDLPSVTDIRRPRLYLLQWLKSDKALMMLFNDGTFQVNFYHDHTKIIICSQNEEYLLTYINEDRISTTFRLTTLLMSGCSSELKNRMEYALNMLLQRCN
Chain of CAMK2A (Q9UQM7 whole entry): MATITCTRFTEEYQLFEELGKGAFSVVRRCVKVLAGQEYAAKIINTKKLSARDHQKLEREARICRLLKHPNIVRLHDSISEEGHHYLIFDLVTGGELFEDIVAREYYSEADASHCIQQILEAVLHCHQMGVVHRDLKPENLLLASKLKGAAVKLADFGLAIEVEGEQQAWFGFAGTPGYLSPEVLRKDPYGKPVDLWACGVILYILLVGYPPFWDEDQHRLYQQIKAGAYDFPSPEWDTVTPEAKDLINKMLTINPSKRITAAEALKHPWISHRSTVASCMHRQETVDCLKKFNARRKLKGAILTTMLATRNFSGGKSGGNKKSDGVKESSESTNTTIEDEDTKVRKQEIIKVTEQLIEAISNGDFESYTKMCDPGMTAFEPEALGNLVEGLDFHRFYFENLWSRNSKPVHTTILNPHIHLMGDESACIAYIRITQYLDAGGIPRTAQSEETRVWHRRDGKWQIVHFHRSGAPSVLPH
T3 sequence (Q9UK32 whole entry): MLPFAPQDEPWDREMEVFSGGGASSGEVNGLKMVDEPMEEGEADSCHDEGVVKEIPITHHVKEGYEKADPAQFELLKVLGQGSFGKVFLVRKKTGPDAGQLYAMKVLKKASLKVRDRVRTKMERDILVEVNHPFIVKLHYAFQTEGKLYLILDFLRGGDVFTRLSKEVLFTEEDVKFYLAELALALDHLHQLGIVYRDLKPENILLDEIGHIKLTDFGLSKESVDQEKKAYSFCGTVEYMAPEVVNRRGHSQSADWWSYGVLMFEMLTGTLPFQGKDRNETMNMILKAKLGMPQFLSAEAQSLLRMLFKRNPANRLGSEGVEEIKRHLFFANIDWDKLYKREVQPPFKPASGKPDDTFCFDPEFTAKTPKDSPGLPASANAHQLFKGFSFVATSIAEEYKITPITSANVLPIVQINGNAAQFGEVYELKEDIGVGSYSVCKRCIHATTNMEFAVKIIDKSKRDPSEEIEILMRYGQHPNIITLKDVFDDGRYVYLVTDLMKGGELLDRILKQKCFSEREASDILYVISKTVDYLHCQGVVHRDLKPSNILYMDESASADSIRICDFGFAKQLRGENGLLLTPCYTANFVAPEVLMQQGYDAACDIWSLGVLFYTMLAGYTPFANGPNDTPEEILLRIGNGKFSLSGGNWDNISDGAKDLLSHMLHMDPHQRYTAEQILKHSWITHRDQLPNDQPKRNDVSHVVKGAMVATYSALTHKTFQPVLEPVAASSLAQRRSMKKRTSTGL

Question: With Cn1ncnc1[C@H]1c2n[nH]c(=O)c3cc(F)cc(c23)N[C@@H]1c1ccc(F)cc1 [Talazoparib] as the compound, how does the percent of control binding at 10 µM (AKT3; [3]) read?
Answer: Its percent of control binding at 10 µM is 88%.

Question: What about the percent of control binding at 10 µM (CAMK2A; [3]) of the same compound?
Answer: Its percent of control binding at 10 µM is 86%.

Question: What about the percent of control binding at 10 µM (SNRK; [3]) of the same compound?
Answer: Its percent of control binding at 10 µM is 100%.

Question: What about the percent of control binding at 10 µM [1, 3] of the same compound?
Answer: The percent of control binding at 10 µM was 92%.

Question: And the percent of control binding at 10 µM (PLK2; [3])?
Answer: Its percent of control binding at 10 µM is 100%.

Question: What about the percent of control binding at 10 µM [2, 3] of the same compound?
Answer: The percent of control binding at 10 µM was 97%.

Question: And the percent of control binding at 10 µM (CDK2; [3])?
Answer: The percent of control binding at 10 µM was 96%.

Question: And the percent of control binding at 10 µM (TAOK3; [3])?
Answer: Its percent of control binding at 10 µM is 100%.

Question: And the percent of control binding at 10 µM (MKK7; [3])?
Answer: The percent of control binding at 10 µM was 100%.

Question: How did the percent of control binding at 10 µM (AKT3; [4]) turn out when O=C(c1cc(Cc2n[nH]c(=O)c3ccccc23)ccc1F)N1CCN(C(=O)C2CC2)CC1 [Olaparib] was run?
Answer: Its percent of control binding at 10 µM is 100%.

Question: And the percent of control binding at 10 µM (CAMK2A; [4])?
Answer: Its percent of control binding at 10 µM is 96%.

Question: And the percent of control binding at 10 µM (SNRK; [4])?
Answer: The percent of control binding at 10 µM was 96%.

Question: What about the percent of control binding at 10 µM [1, 4] of the same compound?
Answer: Its percent of control binding at 10 µM is 83%.

Question: And the percent of control binding at 10 µM (PLK2; [4])?
Answer: Its percent of control binding at 10 µM is 95%.

Question: And the percent of control binding at 10 µM [2, 4]?
Answer: Its percent of control binding at 10 µM is 92%.

Question: What about the percent of control binding at 10 µM (CDK2; [4]) of the same compound?
Answer: Its percent of control binding at 10 µM is 93%.

Question: And the percent of control binding at 10 µM (TAOK3; [4])?
Answer: Its percent of control binding at 10 µM is 94%.

Question: What about the percent of control binding at 10 µM (MKK7; [4]) of the same compound?
Answer: Its percent of control binding at 10 µM is 98%.

Question: Which results are given for CNCc1ccc(-c2[nH]c3cc(F)cc4c3c2CCNC4=O)cc1 [Rucaparib]?
Answer: percent of control binding at 10 µM (AKT3; [5]): 100%; percent of control binding at 10 µM (CAMK2A; [5]): 79%; percent of control binding at 10 µM (SNRK; [5]): 80%; percent of control binding at 10 µM [1, 5]: 80%; percent of control binding at 10 µM (PLK2; [5]): 76%; percent of control binding at 10 µM [2, 5]: 82%; percent of control binding at 10 µM (CDK2; [5]): 98%; percent of control binding at 10 µM (TAOK3; [5]): 91%; percent of control binding at 10 µM (MKK7; [5]): 100%

Question: Which results are given for NC(=O)c1cccc2cn(-c3ccc([C@@H]4CCCNC4)cc3)nc12 [Niraparib]?
Answer: percent of control binding at 10 µM (AKT3; [6]): 97%; percent of control binding at 10 µM (CAMK2A; [6]): 78%; percent of control binding at 10 µM (SNRK; [6]): 100%; percent of control binding at 10 µM [1, 6]: 58%; percent of control binding at 10 µM (PLK2; [6]): 92%; percent of control binding at 10 µM [2, 6]: 100%; percent of control binding at 10 µM (CDK2; [6]): 100%; percent of control binding at 10 µM (TAOK3; [6]): 100%; percent of control binding at 10 µM (MKK7; [6]): 100%
